Data from US9861615B2, “Methods and pharmaceutical compositions for the treatment of beta-thalassemias” (INSERM (INSTITUT NATIONAL DE LA SANTE ET DE LA RECHERCHE …, priority 2013, dated 2018).

What was measured:
[1] = system: CD36+ erythroid progenitors from cord blood; assay: Toxicity of KPT on CD36+ erythroid progenitors, normal EPO; type: cell-based, human; details: day 6 (D6) of culture; 33 nM, 100 nM, 333 nM and 1000 nM; normal concentrations of EPO; until 20 h of treatment
Protocol: FIG. 3A. KPT is not toxic for CD36+ erythroid progenitors from cord blood at day 6 (D6) of culture, when diluted at concentrations 33 nM, 100 nM, 333 nM and 1000 nM in CD36+ culture media, with normal concentrations of erythropoietin (EPO), until 20 h of treatment.
(§1) Umbilical cord blood units from normal full-term deliveries were obtained, after informed mother's consent, from the Obstetrics Unit of Hôpital Necker-Enfants Malades. CD36+ erythroid progenitors, generated from 7 days IL-6+IL3+SCF− cultured CD34 progenitors isolated from cord blood (Miltenyi CD34 Progenitor Cell Isolation Kit), were cultured in the presence of IL3+SCF+Epo in IMDM (Gibco cell culture) supplemented with 15% BIT 9500 (Stem Cell Technologies).

[2] = system: CD36+D6 erythroid progenitors from cord blood; assay: Cell death of CD36+D6 cells during EPO starvation; type: cell-based, human; details: EPO starvation during 20 h (80% of cell death without KPT)
Protocol: FIG. 3B. EPO starvation during 20 h results in 80% of cell death. Treatment of CD36+D6 with KPT at 100 nM, 333 nM during EPO starvation decreases cell death, of 49% and 39% respectively, compared to the absence of KPT treatment.
as §1

[3] = system: HSP70 nuclear retention in CD36+D6 from cord blood; assay: HSP70 nuclear retention in cord blood CD36+D6 under EPO starvation; type: cell-based, human; details: after 20 h of treatment
Protocol: as §1
5·10^4 cells were spin on slides, acetone fixated, hydrated with cold 1×PBS 1% BSA for 30 minutes, treated with formaldehyde for 15 min (Sigma), then with methanol (Prolabo) for 10 minutes at room temperature. Cells were then permeabilized with 1×PBS 0.2% triton X100 (Sigma) for 10 min at 4° C., washed and incubated in 10% BSA for 30 minutes. They were then sequentially incubated with antibodies diluted in 1×PBS 1% BSA 0.1% tween (Sigma). Nuclei were stained with DAPI and slides were examined with a confocal laser microscope (LSM 700 Carl Zeiss).

[4] = system: CD36+ cells derived from circulating CD34+ cells from Beta thalassemia major patient; assay: Proliferation, cell death and terminal maturation of beta-thalassemia CD36+ cells; type: cell-based, human
Protocol: FIG. 6. CD36+ cells, derived from circulating CD34+ cells from Beta thalassemia major patient, were treated or not with KPT molecule (KPT 0=DMSO, KPT 100=100 nM, KPT 1000=1000 nM), and analysed at 24 h, 48 h, 72 h and 96 h of treatment. Day 0 of treatment corresponds to day 5 of CD36+ culture. a) Proliferation of CD36+ cells between 24 h and 96 h, for the different conditions of KPT treatment. b) Cell death of CD36+ cells between 48 h and 96 h, for the different conditions of KPT treatment. c) Flow cytometry analysis of Mean fluorescence intensity (MFI) for Band 3 protein, in CD36+ cells, in the different conditions of KPT treatment. d) MGG count of immature, polychromatophiles and acidophiles+reticulocytes at 96 h of treatment, for the different conditions of KPT treatment and e) corresponding maturation indexes.
FIG. 7: CD36+ cells, derived from circulating CD34+ cells from Beta thalassemia major patient, were treated or not with KPT molecule (KPT 0=DMSO, KPT 100=100 nM, KPT 1000=1000 nM), and analysed at 24 h, 48 h, and 72 h of treatment. Day 0 of treatment corresponds to day 6 of CD36+ culture. a) Proliferation of CD36+ cells between 24 h and 72 h, for the different conditions of KPT treatment. b) Cell death of CD36+ cells between 24 h and 72 h, for the different conditions of KPT treatment. c) Flow cytometry analysis of MFI for Band 3 protein, in CD36+ cells, in the different conditions of KPT treatment. d) Flow cytometry analysis of the number of small, alive, CD36+ cells positive for fœtal haemoglobin in the different conditions of KPT treatment. e) MGG count of immature, polychromatophiles and acidophiles+reticulocytes at 48 h of treatment, for the different conditions KPT 0 and KPT 100 nM and f) corresponding maturation indexes.
(§2) Data from FIG. 6 and FIG. 7 are from two different experiments on CD36+ cells from a beta-thalassemia patient. Data from FIG. 8 have been performed with cells from FIG. 7 experiment. Beta-thalassemia erythroblasts were generated in vitro from peripheral blood circulating CD34+ cells from an adult patient with beta-thalassemia major (β^0-TM). This study was performed according to the Helsinky Declaration with approval from the ethics committee of our institution.
In vitro, maturation is arrested at the polychromatophilic stage in beta-thalassemia erythroid progenitors. To quantify the maturation arrest in beta-thalassemia cells, we use an index of terminal maturation as the number (acidophilic cells+reticulocytes per slide)*100 divided by the number of polychromatophilic cells per slide (Arlet J b et al. Nature oct 2014).

[5] = system: HSP70 nuclear localization in beta-thalassemia CD36+ cells; assay: HSP70 localization and GATA1 fluorescence in beta-thalassemia CD36+ cells; type: cell-based, human
Protocol: FIG. 8. CD36+ cells from the same experiment as FIG. […] Percentages of cells containing HSP70 located in the nucleus (black) or in the cytoplasm (grey), gated on the total population of cells analyzed, for the different treatment conditions: KPT 0 (a), KPT 100 nM (b) and KPT 1000 nM (c). d) HSP70 cytoplasm/nuclear ratio for the three treatment conditions e) Mean intensity and standard deviation for GATA1 transcription factor fluorescence.
as §2
Amnis Technology enables to analyse fluorescence localization in a large number of cells beforehand labelled. Here we show the percentage of cells positive for HSP70 labelling in the nucleus, or in the cytoplasm, for conditions KPT 0, 100 nM and 1000 nM (FIG. 8). We can observe that the fraction of cells positive for HSP70 in the nucleus increases in KPT 100 nM and 1000 nM conditions (FIGS. 8b and 8c), compared to KPT 0 (FIG. 8a).

XPO1 = XPO1 (Homo sapiens, UniProt O14980); details: cited from earlier work
Chain of XPO1 (O14980 whole entry): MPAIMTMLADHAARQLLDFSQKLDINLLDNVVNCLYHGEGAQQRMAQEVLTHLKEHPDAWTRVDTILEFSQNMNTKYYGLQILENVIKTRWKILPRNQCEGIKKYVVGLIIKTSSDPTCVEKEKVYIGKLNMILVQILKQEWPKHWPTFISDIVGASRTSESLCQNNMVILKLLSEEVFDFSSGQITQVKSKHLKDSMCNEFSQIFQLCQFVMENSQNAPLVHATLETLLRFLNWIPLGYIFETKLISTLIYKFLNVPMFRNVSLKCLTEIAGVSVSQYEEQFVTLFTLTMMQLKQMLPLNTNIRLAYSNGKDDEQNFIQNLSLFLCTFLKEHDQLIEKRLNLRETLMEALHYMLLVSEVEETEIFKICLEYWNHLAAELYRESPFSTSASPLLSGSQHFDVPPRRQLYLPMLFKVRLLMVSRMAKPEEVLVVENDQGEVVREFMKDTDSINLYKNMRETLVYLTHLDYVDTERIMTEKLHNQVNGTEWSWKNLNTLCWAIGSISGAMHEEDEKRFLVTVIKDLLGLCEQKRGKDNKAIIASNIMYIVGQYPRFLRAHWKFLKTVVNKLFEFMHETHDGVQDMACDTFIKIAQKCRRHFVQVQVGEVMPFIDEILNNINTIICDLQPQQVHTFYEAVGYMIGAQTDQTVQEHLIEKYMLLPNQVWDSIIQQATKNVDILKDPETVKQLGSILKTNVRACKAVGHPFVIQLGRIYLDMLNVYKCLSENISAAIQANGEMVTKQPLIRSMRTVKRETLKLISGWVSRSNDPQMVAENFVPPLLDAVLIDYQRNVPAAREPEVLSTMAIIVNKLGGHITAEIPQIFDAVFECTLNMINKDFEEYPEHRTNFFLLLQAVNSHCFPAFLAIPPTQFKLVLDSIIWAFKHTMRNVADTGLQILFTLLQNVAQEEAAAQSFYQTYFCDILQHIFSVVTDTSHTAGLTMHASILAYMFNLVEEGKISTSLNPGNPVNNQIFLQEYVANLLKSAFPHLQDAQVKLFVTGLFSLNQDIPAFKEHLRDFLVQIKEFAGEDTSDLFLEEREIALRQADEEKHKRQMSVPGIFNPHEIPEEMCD

Row | SMILES | toxicity for CD36+ erythroid progenitors [1] | decrease of cell death compared to the absence of KPT treatment ([2]; KPT 100 nM) | decrease of cell death compared to the absence of KPT treatment ([2]; KPT 333 nM) | HSP70 nuclear retention [3] | proportion of HbF positive among the population of small alive cells ([4]; 72 hours of treatment with 1000 nM, compared to KPT 0 and KPT 100 nM) | maturation index (acidophilic cells+reticulocytes)*100 / polychromatophilic cells ([4]; KPT 100 nM and 1000 nM compared to control condition KPT 0) | mean fluorescence intensity (MFI) of Band 3 protein labelling ([4]; KPT 100 nM or 1000 nM, at 96 h of treatment (FIG. 6c) and at 72 h of treatment (FIG. 7c), flow cytometry) | cytotoxicity (cell death of CD36+ cells) ([4]; KPT 1000 nM compared to KPT 0 and KPT 100 nM) | proliferation of CD36+ cells ([4]; KPT 1000 nM compared to KPT 0 and KPT 100 nM, only in the experiment with high proliferation rate in control condition) | HSP70 cyto/nuclear fraction ([5]; KPT 100 nM and 1000 nM compared to KPT 0, 24 h of treatment) | fraction of cells positive for HSP70 in the nucleus ([5]; KPT 100 nM and 1000 nM compared to KPT 0, 24 h of treatment, Amnis) | mean of fluorescence intensity of GATA1 labelling ([5]; KPT treatment conditions of FIG. 8, 24 h of treatment) | HSP70 nuclear localization ([5]; beta-thalassemia CD36+D8 cells, 72 h of treatment at 100 nM, compared to non treated cells) | HSP70 nuclear retention in erythroid precursor cells (XPO1)
1 | FC(F)(F)c1cc(-c2ncn(/C=C\c3nnco3)n2)cc(C(F)(F)F)c1 [KPT] | not toxic | 49% | 39% | induces HSP70 nuclear retention | higher | increases | increases | little cytotoxicity | decreased proliferation | decrease | increases | increase | induces HSP70 nuclear localization | –
2 | CCC(=C/[C@H](C)C/C=C/C(C)=C/[C@@H](C)C(=O)[C@@H](C)[C@H](O)[C@@H](C)C/C(C)=C/C(=O)O)/C=C/[C@@H]1OC(=O)C=C[C@@H]1C [Leptomycin B] | – | – | – | – | – | – | – | – | – | – | – | – | – | induces HSP70 nuclear retention
